This note sets out measurements from a melting point compilation (Tetko et al.).

Turning to `NNC(=O)C(=O)N1CCCC1`, the melting point fell in the range of 117 to 119 °C.
In the case of `CC(C)(C)OC(=O)Nc1ncon1`, the melting point lay in the range of 165 to 167 °C.
As for `Cc1ccc(NC(=O)CN(C)C(=O)CCl)cc1`, the figure is 145 to 147 °C.
The compound `O=C(CCl)c1ccc2c(c1)COC2` had a melting point of 109 to 111 °C.
For the compound `O=C1CCC2SCCSC12` (centres undefined), the melting point was in the range of 81 to 83 °C.
`Nc1nncc(-c2ccc(Br)cc2)n1` displayed a melting point of 258 to 260 °C.
With `CCCCOc1ccc(C(N)=O)cc1`, the melting point fell in the range of 162 to 164 °C.
As for `CC(C)n1cccc1C(=O)O`, the figure is 106 to 108 °C; as for `Nn1c(S)nnc1SCc1ccccc1`, 157 to 159 °C.
As for `Cc1nn(CCCl)c(C)c1C(=O)O`, the figure is 139 to 141 °C; as for `Cc1c(-c2ccccc2)sc(N)c1C(=O)N1CCOCC1`, 187 to 189 °C; as for `Cc1sc2nc(CN3CCCCC3)nc(Cl)c2c1C`, 61 to 63 °C.
`Nc1ccc(S(=O)(=O)N2CCOCC2)cc1N` gave a melting point of 169 to 171 °C.
As for `CC(=O)N1CC=C(c2ccc(O)cc2)CC1`, the figure is 188 to 190 °C.
`O=C(O)CCNS(=O)(=O)c1cccs1` displayed a melting point of 143 to 145 °C.
`Cn1c(=O)c2nc(SCC(=O)O)[nH]c2n(C)c1=O` gave a melting point of 259 to 261 °C.
To `Nc1cccc(CS(=O)(=O)C2CCCCC2)c1` belongs 106 to 108 °C; to `COc1ccnc(CO)c1`, 70 to 72 °C; to `Nc1nc2ccccc2nc1N1CCCC1`, 149 to 151 °C.
To `NC(=S)NC1CCCCCC1` belongs 89 to 91 °C; to `Cc1cc(C=O)c(C)n1Cc1ccco1`, 87 to 89 °C.
To `OCc1cc(Cl)c2c(c1)OCO2` belongs 101 to 105 °C.
`CCSc1ccc([N+](=O)[O-])cc1C(=O)O`: the melting point is 189 to 191 °C.
As for `c1ccc(CN2CCN(c3ccccc3)CC2)cc1`, the figure is 51 to 53 °C; as for `CCOC(=O)c1sc2[nH]cnc(=O)c2c1C`, 233 to 235 °C; as for `CC(Sc1ccc(Cl)cc1)C(=O)O` (centres undefined), 106 to 108 °C.
Consider `NC(=NO)c1ccc(Br)o1`, for which the melting point was in the range of 129 to 131 °C.
To `COc1ccc([N+](=O)[O-])c2cccnc12` belongs 145 to 147 °C; to `OC(CN1CCCC1)C(F)(F)F` (centres undefined), 78 to 80 °C.
`COc1ccccc1CC(=O)NN` displayed a melting point of 112 to 114 °C.
As for `O=C(O)CNC(=O)c1cccc(O)c1`, the figure is 174 to 176 °C; as for `Nc1ccc(C(=O)OC2CCCC2)cc1`, 55 to 57 °C.
To `Nc1ccc(S(=O)(=O)Nc2cccnc2)cc1` belongs 256 to 258 °C; to `CN(c1cccc(Cl)c1)S(=O)(=O)c1cccc(C(=O)O)c1`, 162 to 164 °C.
The compound `CCOc1cc(C(=O)O)c(N)cc1OC` yielded a melting point of 185 to 187 °C.
As for `Fc1ccc(-c2csc3nc(Cc4ccc(Cl)cc4)nc(Cl)c23)cc1`, the melting point lay within 148 to 150 °C.
In turn, `COc1ccc(NC(=O)CC(C)=O)c(OC)c1` showed a melting point of 96 to 98 °C.
As for `Cn1ccc(C(=O)O)cc1=O`, the figure is 219 to 221 °C; as for `CC(=O)NC(CC(=O)O)c1ccccc1` (centres undefined), 165 to 167 °C.
On to `Nc1ccc(Oc2ccc(Cl)cn2)cc1`, for which the melting point was 70 to 72 °C.
As for `CCCn1c(=O)n(C)c(=O)c2c(S)nc(C(C)C)nc21`, the figure is 204 to 206 °C; as for `O=c1ccccn1CCBr`, 126 to 128 °C.
To `OC(CC1COCCN1)c1ccco1` (centres undefined) belongs 84 to 86 °C.
`CC(C)(C)n1cc(C(=O)O)c(-c2ccccc2Cl)n1`: the melting point was in the range of 164 to 166 °C.
To `O=C(O)COc1ccc2oc3c(c2c1)CCCC3` belongs 188 to 190 °C.
As for `CC(O)c1c(Cl)nc2sccn12` (centres undefined), the figure is 107 to 109 °C; as for `Cc1ccc(-c2cncc(C(=O)O)c2)cc1`, 266 to 268 °C; as for `CN1CCC(CC(=O)O)CC1`, 150 to 152 °C.
To `Nc1cc(F)cc(N2CCOCC2)c1` belongs 91 to 93 °C.
